Experiments:
[1] = test system: oncogenic progression in KC mice (p48cre;LSL-KrasG12D); test: KC mouse model of slowly progressive PDA, mycobiome ablation; assay type: in vivo; settings: oral amphotericin B vs vehicle, killed at three months old (FIG. 3A)
Text: (§1) Littermates were used as controls.

[2] = test system: orthotopic tumors from KPC mice; test: Orthotopic KPC tumors in MBL-null mice; assay type: in vivo, mouse; settings: amphotericin B vs vehicle, three weeks (FIG. 8B)
Text: as §1

[3] = test system: orthotopic PDA tumors from KPC mice; settings: for progression of orthotopic PDA (tumor weight): wild-type mice, oral antifungal vs vehicle, killed three weeks after tumor implantation (FIG. 3B, 7A)
KPC tumor cells = test: XTT proliferation assay of KPC tumor cells; assay type: cell-based; settings: recombinant mouse C3a 5 nM vs vehicle, serial time points (FIG. 8F)
Text: as §1

[4] = test system: orthotopic tumors from KPC mice; test: Intratumoral injection of recombinant C3a into orthotopic KPC tumors; assay type: in vivo, mouse; settings: single intratumoral injection 40 μg/kg on day 14, tumors collected day 21 (FIG. 4D)
Text: as §1

Compound	oncogenic progression (pancreatic weight, acinar area, ADM/PanIN lesions, fibrosis) [1]	protection against tumor growth in MBL-null mice (tumor weight) [2]	effect on gemcitabine chemotherapy (tumor weight) ([3]; wild-type mice with orthotopic PDA tumors, amphotericin B combined with gemcitabine, three weeks of treatment (FIG. 3C))	progression of orthotopic PDA (tumor weight) [3]	proliferation of KPC cells in vitro (KPC tumor cells)	growth of KPC tumors in vivo (change in tumor volume) [4]
C[C@@H]1[C@H](O)[C@@H](C)/C=C/C=C/C=C/C=C/C=C/C=C/C=C/[C@H](O[C@@H]2O[C@H](C)[C@@H](O)[C@H](N)[C@@H]2O)C[C@@H]2O[C@](O)(C[C@@H](O)C[C@@H](O)[C@H](O)CC[C@@H](O)C[C@@H](O)CC(=O)O[C@H]1C)C[C@H](O)[C@H]2C(=O)O [amphotericin B]	protected the mice against oncogenic progression	did not provide protection against tumor growth	potentiated the effect of chemotherapy based on gemcitabine	protective against progression	–	–
OC(Cn1cncn1)(Cn1cncn1)c1ccc(F)cc1F [fluconazole]	–	–	–	protective against progression	–	–
recombinant C3a: recombinant mouse complement fragment C3a (R&D)	–	–	–	–	accelerated the proliferation of KPC cells	accelerated
